Measurements published in publication PMC6566410, “Novel Diamide-Based Benzenesulfonamides as Selective Carbonic Anhydrase IX Inhibitors Endowed with Antitumor Activity: Synthesis, Biological Evaluation and In Silico Insights” (International Journal of Molecular Sciences, 2019).

Assays:
hCA XII = hCA XII (Homo sapiens, UniProt O43570); assay: stopped-flow CO2 hydrase assay; details: for Selectivity ratio I/XII: KI hCA I / KI hCA XII; for Selectivity ratio II/XII: KI hCA II / KI hCA XII
Excerpt: (§1) An Applied Photophysics stopped-flow instrument was used for assaying the CA catalysed CO2 hydration activity, as reported earlier [17]. The inhibition constants were obtained by non-linear least-squares methods using PRISM 3 and the Cheng-Prusoff equation as reported earlier, and represent the mean from at least three different determinations. The four tested CA isofoms were recombinant ones obtained in-house as reported earlier [26, 27, 28, 29].

BT-549 = assay: NCI one-dose SRB assay; assay type: cell-based, human; details: BT-549 (Breast Cancer), 1.00E-5 Molar
Procedure: First, all diamide-based benzenesulfonamides herein reported 5a–h were screened for their antitumor activity at one dose (10^−5 M) assay against a panel of sixty cancer cell lines through the National Cancer Institute (NCI) Developmental Therapeutic Program (www.dtp.nci.nih.gov), according to US-NCI protocol. The cell growth and cell viability were evaluated using the sulforhodamine B (SRB) colorimetric assay.
This assay was carried out according to the protocol of the Drug Evaluation Branch, NCI, Bethesda. The cell growth and cell viability were evaluated using the sulforhodamine B (SRB) colorimetric assay, as reported earlier.

SF-268 = assay: NCI one-dose SRB assay; assay type: cell-based; details: Homo sapiens, SF-268 (CNS Cancer), 1.00E-5 Molar, read-out: Growth Percent
Method in brief: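 Read-out: sulforhodamine B colorimetric measurement of cell growth and viability. Each compound was applied once at 10^−5 M across sixty cancer cell lines under the NCI Drug Evaluation Branch protocol.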

hCA II = hCA II (Homo sapiens, UniProt P00918); assay: stopped-flow CO2 hydrase assay
Excerpt: as §1

[1] = test system: renal cancer UO-31 cell line; assay: MTT anti-proliferative assay; assay type: cell-based; details: Homo sapiens, mean ± S.D. of three separate experiments
Procedure: Staurosporine was adopted in the experiment as a reference anticancer drug.
Renal cancer UO-31 cell line was obtained from American Type Culture Collection (ATCC). UO-31 cells were seeded into 96-well plates at 1.8 x 10^4/well. Cells were grown in DMEM, and supplemented with 10% heat-inactivated fetal bovine serum, 1% L-glutamine (2.5 mM), HEPES buffer (10 mM), 50 μg/mL gentamycin.

UO-31 cells [2] = assay: cell cycle analysis, DNA flow cytometry; assay type: cell-based, human; details: UO-31, at IC50 concentration, 24 h
Procedure: The effect of diamide-based benzenesulfonamides 5a and 5h on cell cycle progression was examined in renal UO-31 cancer cells, through a DNA flow cytometric assay (Figure 3).
Then, the treated cells were collected by centrifugation, fixed in ice-cold 70% (v/v) ethanol, washed with PBS, re-suspended with RNase (100 μg/mL), stained with PI (40 μg/mL), and analyzed by flow cytometry using FACS Calibur (Becton Dickinson, BD, USA). The cell cycle distributions were calculated utilizing CellQuest software 5.1 (Becton Dickinson).

UO-31 cells [3] = assay: Annexin V-FITC/PI apoptosis assay; assay type: cell-based, human; details: for late apoptotic cells (UR) / early apoptotic cells (LR): UO-31, annexin V-FITC/PI; for late apoptotic cells (UR): control 0.29%; for early apoptotic cells (LR): control 0.85%
Procedure: To explore whether the anti-proliferative activity of diamide-based sulfonamides 5a and 5h is consistent with the induction of apoptosis within the UO-31 cancer cells, Annexin V-FITC/propidium iodide (AV/PI) dual staining assay was performed by flow cytometry (Figure 4).
Assay of the phosphatidylserine externalization was carried out using Annexin V-FITC/PI apoptosis detection kit (BD Biosciences, San Jose, CA, USA) following the manufacturer’s instructions, as reported previously.

Chain of hCA XII (O43570 25-354): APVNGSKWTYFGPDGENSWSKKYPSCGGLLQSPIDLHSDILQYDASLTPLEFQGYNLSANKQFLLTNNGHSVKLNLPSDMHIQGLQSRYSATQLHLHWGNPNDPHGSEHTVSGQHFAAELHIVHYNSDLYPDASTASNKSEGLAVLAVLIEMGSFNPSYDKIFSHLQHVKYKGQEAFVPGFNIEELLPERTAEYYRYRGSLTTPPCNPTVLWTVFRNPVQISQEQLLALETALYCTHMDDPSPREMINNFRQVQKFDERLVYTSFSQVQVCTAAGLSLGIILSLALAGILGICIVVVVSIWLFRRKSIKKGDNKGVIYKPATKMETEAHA

Structure (SMILES)	Ki (hCA XII) [nM]	Selectivity ratio I/XII (hCA XII)	Growth Percent (BT-549) [%]	activity at 10 µM (SF-268) [%]	Ki (hCA II) [nM]	Selectivity ratio II/XII (hCA XII)	IC50 [1] [nM]	arrest in G2-M phase compared to control (UO-31 cells [2]) [fold]	increase in percentage of cells at Sub-G1 compared to control (UO-31 cells [2]) [fold]	late apoptotic cells (UR) (UO-31 cells [3]) [%]	early apoptotic cells (LR) (UO-31 cells [3]) [%]	total increase in annexin V-FITC positive apoptotic cells (UR + LR) compared with control (UO-31 cells [3]; UO-31) [fold]
Cc1ccc(C=C(NC(=O)c2ccccc2)C(=O)Nc2ccc(S(N)(=O)=O)cc2)cc1 [Compound 5d, N-(3-Oxo-3-((4-sulfamoylphenyl)amino)-1-(p-tolyl)prop-1-en-2-yl)benzamide]	60.2	13.2	105.04	106	94.4	–	–	–	–	–	–	–
COc1ccc(C=C(NC(=O)c2ccccc2)C(=O)Nc2ccc(S(N)(=O)=O)cc2)c(OC)c1 [Compound 5f, N-(1-(2,4-Dimethoxyphenyl)-3-oxo-3-((4-sulfamoylphenyl)amino)prop-1-en-2-yl)benzamide]	134	38.2	–	114	294	2.2	–	–	–	–	–	–
NS(=O)(=O)c1ccc(NC(=O)C(=Cc2ccc(Cl)cc2)NC(=O)c2ccccc2)cc1 [Compound 5a, N-(1-(4-Chlorophenyl)-3-oxo-3-((4-sulfamoylphenyl)amino)prop-1-en-2-yl)benzamide]	16.1	245.7	–	96	68.3	4.2	6530 ± 380	2.2	14	22.96	2.64	–
Cc1ccc(C=C(NC(=O)c2ccccc2)C(=O)Nc2ccc(S(N)(=O)=O)cc2)o1 [Compound 5h, N-(1-(5-Methylfuran-2-yl)-3-oxo-3-((4-sulfamoylphenyl)amino)prop-1-en-2-yl)benzamide]	57.9	141.2	–	100	115	2	4890 ± 220	2.5	15.5	21.85	8.41	26.5
COc1ccc(C=C(NC(=O)c2ccccc2)C(=O)Nc2ccc(S(N)(=O)=O)cc2)cc1 [Compound 5e, N-(1-(4-Methoxyphenyl)-3-oxo-3-((4-sulfamoylphenyl)amino)prop-1-en-2-yl)benzamide]	42.8	23.5	–	113	128	3	–	–	–	–	–	–
COc1ccc(C=C(NC(=O)c2ccccc2)C(=O)Nc2ccc(S(N)(=O)=O)cc2)cc1OC [Compound 5g, N-(1-(3,4-Dimethoxyphenyl)-3-oxo-3-((4-sulfamoylphenyl)amino)prop-1-en-2-yl)benzamide]	9.8	225.3	–	104	448	45.7	–	–	–	–	–	–
NS(=O)(=O)c1ccc(NC(=O)C(=Cc2ccc(Br)cc2)NC(=O)c2ccccc2)cc1 [Compound 5c, N-(1-(4-Bromophenyl)-3-oxo-3-((4-sulfamoylphenyl)amino)prop-1-en-2-yl)benzamide]	55.4	43.3	–	99.6	252	4.5	–	–	–	–	–	–
NS(=O)(=O)c1ccc(NC(=O)C(=Cc2ccc(Cl)cc2Cl)NC(=O)c2ccccc2)cc1 [Compound 5b, N-(1-(2,4-Dichlorophenyl)-3-oxo-3-((4-sulfamoylphenyl)amino)prop-1-en-2-yl)benzamide]	10.5	569.2	89.13	94.5	224	21.3	16700 ± 920	–	–	–	–	–
